Our source for the Activity, inhibition and IC50 values is ChEMBL document CHEMBL4806963, “Antagonistic peptides for frizzled-1 and frizzled-2” (2013).

Structures are written as SMILES. Active and inactive are the calls of the source. No cut-off for these calls is given here. Where a SMILES comes first, the peptide text is derived from it. Bridges are numbered along the chain shown (N, C = ends).

Experiment [1] addresses Frizzled-1 (Rattus norvegicus) (UniProt Q08463). The experiment can be described thus: Agonist activity at rat frizzled-1 expressed in human HEK293superTOP flash cells by luciferase reporter gene assay. In kind it is cell-based. The following applies: HEK293. In general terms: Reporter assays use an easily measured gene product as a stand-in for the process of interest.
For experiment [2], the target named is Frizzled-2 (Rattus norvegicus) (UniProt Q08464). The experiment can be described thus: Agonist activity at rat frizzled-2 expressed in human HEK293superTOP flash cells by luciferase reporter gene assay. In kind it is cell-based. The following applies: HEK293.
The target of experiment [3] is Frizzled-1 (Rattus norvegicus) (UniProt Q08463). The experiment can be described thus: Antagonist activity at Wnt3a-stimulated rat frizzled-1 expressed in human HEK293superTOP flash cells at 10 nM incubated for 24 hrs by luciferase reporter gene assay relative to control. The experiment is classed as cell-based. To be noted: HEK293, filed as antagonist.
Experiment [4] has as its target Frizzled-2 (Rattus norvegicus) (UniProt Q08464). The experiment can be described thus: Antagonist activity at Wnt3a-stimulated rat frizzled-2 expressed in human HEK293superTOP flash cells at 10 nM incubated for 24 hrs by luciferase reporter gene assay relative to control. The experiment is classed as cell-based. The following applies: HEK293, filed as antagonist.

In experiment [5] the target is Frizzled-1 (Rattus norvegicus) (UniProt Q08463). The experiment can be described thus: Antagonist activity at Wnt3a-stimulated rat frizzled-1 expressed in CHO cells incubated for 24 hrs by luciferase reporter gene assay relative to control. In kind it is cell-based. To be noted: filed as antagonist, concentration not given here.
In experiment [6] the target is Frizzled-2 (Rattus norvegicus) (UniProt Q08464). The experiment can be described thus: Antagonist activity at Wnt3a-stimulated rat frizzled-2 expressed in CHO cells incubated for 24 hrs by luciferase reporter gene assay relative to control. To be noted: filed as antagonist, concentration not given here. The experiment is classed as cell-based.
The target in experiment [7] is Frizzled-1 (Rattus norvegicus) (UniProt Q08463). The experiment can be described thus: Antagonist activity at Wnt3a-stimulated rat frizzled-1 expressed in African green monkey COS7 cells incubated for 24 hrs by luciferase reporter gene assay relative to control. In kind it is cell-based. The following applies: filed as antagonist, concentration not given here.
For experiment [8], the target named is Frizzled-2 (Rattus norvegicus) (UniProt Q08464). The experiment can be described thus: Antagonist activity at Wnt3a-stimulated rat frizzled-2 expressed in African green monkey COS7 cells incubated for 24 hrs by luciferase reporter gene assay relative to control. In kind it is cell-based. To be noted: filed as antagonist, concentration not given here.
Experiment [9] deals with Frizzled-1 (Rattus norvegicus) (UniProt Q08463). The experiment can be described thus: Agonist activity at rat frizzled-1 expressed in CHO cells by luciferase reporter gene assay. The experiment is classed as cell-based.
Experiment [10] addresses Frizzled-2 (Rattus norvegicus) (UniProt Q08464). The experiment can be described thus: Agonist activity at rat frizzled-2 expressed in CHO cells by luciferase reporter gene assay. The experiment is classed as cell-based.
Experiment [11] addresses Frizzled-1 (Rattus norvegicus) (UniProt Q08463). The experiment can be described thus: Agonist activity at rat frizzled-1 expressed in African green monkey COS7 cells by luciferase reporter gene assay. The experiment is classed as cell-based.
For experiment [12], the target named is Frizzled-2 (Rattus norvegicus) (UniProt Q08464). The experiment can be described thus: Agonist activity at rat frizzled-2 expressed in African green monkey COS7 cells by luciferase reporter gene assay. In kind it is cell-based.
The target of another experiment is Frizzled-1 (Rattus norvegicus, UniProt Q08463). The experiment can be described thus: Antagonist activity at Wnt3a-stimulated rat frizzled-1 expressed in human HEK293superTOP flash cells incubated for 24 hrs by luciferase reporter gene assay. The experiment is classed as cell-based, HEK293.
The target of another experiment is Frizzled-2 (Rattus norvegicus, UniProt Q08464). The experiment can be described thus: Antagonist activity at Wnt3a-stimulated rat frizzled-2 expressed in human HEK293superTOP flash cells incubated for 24 hrs by luciferase reporter gene assay. The experiment is classed as cell-based, HEK293.
The target of experiment [13] is T1, Frizzled-4 (Homo sapiens) (UniProt Q9ULV1).
T1 sequence (whole entry): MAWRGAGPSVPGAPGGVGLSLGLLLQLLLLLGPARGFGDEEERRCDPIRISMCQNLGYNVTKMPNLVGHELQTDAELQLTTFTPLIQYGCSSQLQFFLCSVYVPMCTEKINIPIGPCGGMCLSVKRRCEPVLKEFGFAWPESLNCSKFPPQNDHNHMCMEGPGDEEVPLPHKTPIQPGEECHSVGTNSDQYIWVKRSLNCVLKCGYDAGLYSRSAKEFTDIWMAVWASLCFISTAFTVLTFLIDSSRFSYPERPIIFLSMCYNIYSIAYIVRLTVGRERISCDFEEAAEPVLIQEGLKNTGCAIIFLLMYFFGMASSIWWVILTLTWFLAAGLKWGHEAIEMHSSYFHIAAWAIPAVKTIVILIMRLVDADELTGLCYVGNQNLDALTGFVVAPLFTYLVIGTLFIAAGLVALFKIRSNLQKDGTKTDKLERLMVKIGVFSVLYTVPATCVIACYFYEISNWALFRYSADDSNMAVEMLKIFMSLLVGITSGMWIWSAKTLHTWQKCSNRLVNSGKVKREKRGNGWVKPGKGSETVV
The experiment can be described thus: Agonist activity at frizzled-4 (unknown origin) expressed in human HEK293superTOP flash cells by luciferase reporter gene assay. In kind it is functional, cell-based. The following applies: HEK293.

For experiment [14], the target named is Frizzled-5 (Homo sapiens) (UniProt Q13467). The experiment can be described thus: Agonist activity at frizzled-5 (unknown origin) expressed in human HEK293superTOP flash cells by luciferase reporter gene assay. The experiment is classed as functional, cell-based. To be noted: HEK293.
Chain of Frizzled-5 (Homo sapiens) (Q13467 whole entry): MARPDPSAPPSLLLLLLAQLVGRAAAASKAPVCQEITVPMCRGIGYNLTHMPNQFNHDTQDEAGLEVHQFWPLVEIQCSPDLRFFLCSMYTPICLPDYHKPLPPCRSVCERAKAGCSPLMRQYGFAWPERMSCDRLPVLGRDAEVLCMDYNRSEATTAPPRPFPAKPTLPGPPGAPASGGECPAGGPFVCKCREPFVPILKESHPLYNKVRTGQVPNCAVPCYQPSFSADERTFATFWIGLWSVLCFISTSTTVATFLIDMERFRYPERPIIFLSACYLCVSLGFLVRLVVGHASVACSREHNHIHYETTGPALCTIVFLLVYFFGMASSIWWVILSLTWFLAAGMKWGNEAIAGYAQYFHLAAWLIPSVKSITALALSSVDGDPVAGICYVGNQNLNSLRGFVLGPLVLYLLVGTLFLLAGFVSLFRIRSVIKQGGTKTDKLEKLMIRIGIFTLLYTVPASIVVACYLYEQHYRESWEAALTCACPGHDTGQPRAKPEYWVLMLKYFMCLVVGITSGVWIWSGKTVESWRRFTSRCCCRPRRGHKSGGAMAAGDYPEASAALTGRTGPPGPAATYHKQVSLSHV

Chain of Frizzled-2 (Rattus norvegicus) (Q08464 29-570 limits assumed): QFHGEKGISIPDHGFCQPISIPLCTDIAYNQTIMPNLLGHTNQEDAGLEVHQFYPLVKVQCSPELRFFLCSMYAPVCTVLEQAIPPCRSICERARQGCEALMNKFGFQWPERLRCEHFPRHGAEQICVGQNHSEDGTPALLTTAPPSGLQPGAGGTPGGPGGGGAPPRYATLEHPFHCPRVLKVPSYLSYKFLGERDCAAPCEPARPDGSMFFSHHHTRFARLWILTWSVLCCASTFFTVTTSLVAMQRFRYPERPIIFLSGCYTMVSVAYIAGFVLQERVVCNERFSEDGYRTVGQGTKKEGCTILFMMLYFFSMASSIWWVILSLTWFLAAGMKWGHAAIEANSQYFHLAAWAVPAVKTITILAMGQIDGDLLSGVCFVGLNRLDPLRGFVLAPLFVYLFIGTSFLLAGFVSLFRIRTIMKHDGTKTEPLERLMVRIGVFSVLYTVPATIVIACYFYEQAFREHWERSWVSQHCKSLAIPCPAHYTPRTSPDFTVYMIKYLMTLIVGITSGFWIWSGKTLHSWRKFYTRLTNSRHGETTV
Chain of Frizzled-1 (Rattus norvegicus) (Q08463 whole entry): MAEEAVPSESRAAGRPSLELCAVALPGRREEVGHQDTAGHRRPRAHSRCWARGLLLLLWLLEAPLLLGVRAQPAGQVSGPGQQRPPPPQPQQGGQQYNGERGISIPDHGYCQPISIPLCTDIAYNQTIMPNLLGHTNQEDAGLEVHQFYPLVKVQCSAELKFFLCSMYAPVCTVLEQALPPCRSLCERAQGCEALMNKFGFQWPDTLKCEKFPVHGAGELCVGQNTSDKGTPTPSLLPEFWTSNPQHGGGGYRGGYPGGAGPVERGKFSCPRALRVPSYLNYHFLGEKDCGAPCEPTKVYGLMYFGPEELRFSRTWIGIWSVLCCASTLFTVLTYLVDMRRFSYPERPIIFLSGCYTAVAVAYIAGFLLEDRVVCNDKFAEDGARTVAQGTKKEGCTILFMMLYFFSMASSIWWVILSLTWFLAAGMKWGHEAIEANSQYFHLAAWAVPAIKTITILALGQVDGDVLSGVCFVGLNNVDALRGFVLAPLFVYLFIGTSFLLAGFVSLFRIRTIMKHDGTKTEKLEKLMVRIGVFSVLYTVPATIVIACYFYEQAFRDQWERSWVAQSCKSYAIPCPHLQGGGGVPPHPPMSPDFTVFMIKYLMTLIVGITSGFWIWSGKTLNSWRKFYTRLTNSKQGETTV
Chain of Frizzled-2 (Q08464 whole entry): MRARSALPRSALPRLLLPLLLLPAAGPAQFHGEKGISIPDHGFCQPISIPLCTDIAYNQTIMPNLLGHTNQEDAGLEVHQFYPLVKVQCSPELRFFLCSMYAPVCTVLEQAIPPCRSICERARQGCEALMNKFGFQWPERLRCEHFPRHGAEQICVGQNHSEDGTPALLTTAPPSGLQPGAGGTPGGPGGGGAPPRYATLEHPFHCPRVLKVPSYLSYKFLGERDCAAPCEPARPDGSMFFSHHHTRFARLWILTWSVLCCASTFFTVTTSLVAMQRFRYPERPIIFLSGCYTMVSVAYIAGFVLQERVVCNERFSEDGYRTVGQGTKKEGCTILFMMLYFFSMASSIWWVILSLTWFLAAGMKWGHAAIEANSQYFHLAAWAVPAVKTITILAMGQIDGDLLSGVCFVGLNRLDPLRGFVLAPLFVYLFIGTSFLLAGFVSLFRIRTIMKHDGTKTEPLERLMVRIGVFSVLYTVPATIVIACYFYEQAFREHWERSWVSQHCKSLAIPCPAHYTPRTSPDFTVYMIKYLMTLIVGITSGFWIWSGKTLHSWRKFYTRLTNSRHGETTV
Chain of Frizzled-1 (Q08463 whole entry): as the sequence (Q08463 whole entry) above

Take `CC(=O)NCC(=O)N[C@@H](CO)C(=O)N[C@@H](CS)C(=O)N[C@@H](CO)C(=O)N[C@@H](CC(C)C)C(=O)N[C@@H](CCCCN)C(=O)N[C@H](C(=O)N[C@@H](CS)C(=O)N[C@@H](Cc1c[nH]c2ccccc12)C(=O)N[C@@H](CC(C)C)C(=O)N[C@@H](CCC(N)=O)C(=O)N[C@@H](CC(C)C)C(=O)N[C@@H](C)C(=O)N[C@@H](CC(=O)O)C(N)=O)[C@@H](C)O` (Ac-GSCSLKTCWLQLAD-NH2): the outcome in [1], in experiment [2], in experiment [9], in experiment [10], in [11] and in experiment [12] was inactive. The inhibition in [3], in [4], in experiment [5], in experiment [6], in [7] and in experiment [8] was 100% each time. Besides, the IC50 (usually the concentration that gives 50% inhibition) was 2060 nM at Frizzled-1 and 2110 nM against Frizzled-2.

Consider `CSCC[C@@H]1NC(=O)CNC(=O)[C@H](CCC(=O)O)NC(=O)[C@H](CO)NC(=O)[C@H]([C@@H](C)O)NC(=O)[C@H](CCCCN)NC(=O)[C@H](CC(N)=O)NC(=O)[C@@H](NC(C)=O)CSSC[C@@H](C(=O)N[C@@H](CCC(=O)O)C(=O)N[C@@H](CC(C)C)C(N)=O)NC(=O)CNC(=O)[C@H](CC(=O)O)NC1=O` (Ac-CNKTSEGMDGCEL-NH2; disulfide 1-11), for which the outcome in experiment [13] and in [14] was inactive.
